Test results from PubChem BioAssay (NCI).
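Five compound concentrations were applied to cells in 96-well plates for 48 hours; endpoints were derived by simple linear interpolation of the resulting dose-response curve. TGI denotes the concentration required for complete inhibition of growth.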

Tests used:
Test in all cases: NCI-60 cell line screen, 48 h
ACHN renal = tested on: ACHN renal
CAKI-1 renal = tested on: CAKI-1 renal
LXFL 529 NSCLC = tested on: LXFL 529 NSCLC
M19-MEL melanoma = tested on: M19-MEL melanoma
NCI-H460 lung = tested on: NCI-H460 lung
OVCAR-4 ovarian = tested on: OVCAR-4 ovarian
SN12C renal = tested on: SN12C renal
SNB-19 CNS = tested on: SNB-19 CNS
SNB-75 CNS = tested on: SNB-75 CNS
MDA-MB-231 breast = tested on: MDA-MB-231 breast

Compound	TGI (ACHN renal) [µM]	TGI (CAKI-1 renal) [µM]	TGI (LXFL 529 NSCLC) [µM]	TGI (M19-MEL melanoma) [µM]	TGI (NCI-H460 lung) [µM]	TGI (OVCAR-4 ovarian) [µM]	TGI (SN12C renal) [µM]	TGI (SNB-19 CNS) [µM]	TGI (SNB-75 CNS) [µM]	TGI (MDA-MB-231 breast) [µM]
CCN(CC)C(=S)N/N=C(\C)c1ccccc1O	61.4	55.3	> 100	> 100	97.4	> 100	> 100	> 100	> 100	
COc1cc2c(cc1OC)[C@@H](C(O)c1ccccc1)NCC2 (stereo not given in full)	> 100	> 100	> 100	> 100	> 100	> 100	> 100	> 100	> 100	
CC(=O)Oc1cccc2c1C(=O)C(Br)(Br)CCC2	12.8	10.7	18.7	24.6	43.6	3.67	19.7	25.2	16.5	8.41
O=Cc1[nH]c2ccccc2c1Br	82.7	> 100	60.6	59.7		> 100	50.5	67.2	52.6	
CC(=O)OC[C@@H]1[C@H]2CC(=O)O[C@H]2C[C@H]1OC(C)=O	> 100	> 100	> 100	> 100	> 100	> 100	> 100	> 100	> 100	
CC(C)(C)C(=O)C(c1ccc(-c2cscn2)cc1)c1ccc(-c2cscn2)cc1	> 100	> 73.2	> 100	> 100	> 100	9.54	> 100	> 69.7	25.6	
CC(=S)NNC(=O)c1ccncc1	> 100	> 100	> 100	> 100	> 100	> 100	> 100	> 100	> 100	
CN(C)c1ccc(/C=C2\N=C(c3ccc(N)cc3)OC2=O)cc1	> 100	> 100	> 100	> 100	> 100	> 100	> 100	> 100	> 100	
CCOC(=O)NC(=O)c1cn(CCCOC(=O)CCCCCCCCC(=O)OCCCn2cc(C(=O)NC(=O)OCC)c(=O)[nH]c2=O)c(=O)[nH]c1=O	42.1	51.3	79.8	> 100	> 100	30.7	> 100	57.4	> 100	
O=C(Nc1nccs1)c1cc(C2=CC=CC([N+](=O)[O-])C=C2)nc(=S)[nH]1 (stereo not given)	> 100	> 100	> 100	> 100	> 100		> 100	> 100	> 100	
O=C(O)c1ccc([N+](=O)[O-])c2c(=O)c3ccccc3[nH]c12	> 100	> 100	> 100	> 100	> 100	> 100	> 100	> 100	> 100	
CC(=O)O[C@@H]1CC(C)C2CC2C2=C(C(O)OC2O)[C@@H]1C(C)CCC=C(C)C (stereo not given in full)	90.5	58.3	81.9	47.5	38.3	71.2	35.9	99.5	76.1	
COC1=C(C(=O)OC(C)(C)C)[C@]2(C)C(C(=O)OC(C)(C)C)C(OC)=C(C(=O)OC(C)(C)C)[C@]2(C)C1C(=O)OC(C)(C)C (stereo not given in full)	> 100	> 100	> 100	> 100	> 100	> 100	> 100	> 100	> 100	
O[C@]12CCCC[C@H]1CCC2	> 100	> 100	> 100	> 100	> 100	> 100	> 100	> 100	> 100	
CN(C)CCCn1c2c3ccccc3ccc2c2oc(=O)c3ccccc3c21	15.7	27.6	10	8.86	6.64	> 95		29.2	12	
COC1CC(OS(=O)(=O)c2ccc(C)cc2)C(OS(=O)(=O)c2ccc(C)cc2)C(COS(=O)(=O)c2ccc(C)cc2)O1 (stereo not given)	12.7	7.7	18.7	20	24.7	1.12	20.8	5.58	2.48	
CC1OC(OC2C(Oc3cc(O)c4c(=O)cc(-c5ccc(O)cc5)oc4c3)OC(CO)C(O)C2O)C(O)C(O)C1O (stereo not given)	> 100	> 100	> 100	> 100	> 100	> 100	> 100	> 100	> 100	
Cc1c(C(=O)CC(=O)C(=O)Nc2cccc(C(F)(F)F)c2)[n+](=O)c2ccccc2n1[O-]	15.9	21	14.1	3.69	8.5	13.3	11	19.9	7.86	
COc1ccc(/C=C2\CNC/C(=C\c3ccc(OC)cc3)C2=O)cc1	> 100	81.2	> 100	> 100	> 100	> 100	> 100	> 100	> 100	
Cc1cc2c(c(C#N)c1C)NC(=O)C(CC(=O)O)C2=O (stereo not given)	> 100	> 100	> 100	> 100	> 100	> 100	> 100		> 100	
Cc1ccc(C2=Nc3ccccc3NC(=O)C2)cc1	> 100	> 100	> 100	> 100	> 100	> 100	> 100	> 100	> 100	
C=CCN=C1N=C(CC(=O)OCC)CS1	> 100	> 100	> 100	> 100	> 100	> 100	> 100	> 100	> 100	
